This note sets out measurements from patent US12486267B2, “Imidazo[1,2-A]pyridine and [1,2,4]triazolo[1,5-A]pyridine derivatives as TLR9 inhibitors for the treatment of fibrosis” (BRISTOL-MYERS SQUIBB COMPANY, priority 2020, dated 2025).

The target of this experiment is T1, human TLR9 (Homo sapiens, UniProt Q9NR96).
T1 sequence (Q9NR96 26-1032): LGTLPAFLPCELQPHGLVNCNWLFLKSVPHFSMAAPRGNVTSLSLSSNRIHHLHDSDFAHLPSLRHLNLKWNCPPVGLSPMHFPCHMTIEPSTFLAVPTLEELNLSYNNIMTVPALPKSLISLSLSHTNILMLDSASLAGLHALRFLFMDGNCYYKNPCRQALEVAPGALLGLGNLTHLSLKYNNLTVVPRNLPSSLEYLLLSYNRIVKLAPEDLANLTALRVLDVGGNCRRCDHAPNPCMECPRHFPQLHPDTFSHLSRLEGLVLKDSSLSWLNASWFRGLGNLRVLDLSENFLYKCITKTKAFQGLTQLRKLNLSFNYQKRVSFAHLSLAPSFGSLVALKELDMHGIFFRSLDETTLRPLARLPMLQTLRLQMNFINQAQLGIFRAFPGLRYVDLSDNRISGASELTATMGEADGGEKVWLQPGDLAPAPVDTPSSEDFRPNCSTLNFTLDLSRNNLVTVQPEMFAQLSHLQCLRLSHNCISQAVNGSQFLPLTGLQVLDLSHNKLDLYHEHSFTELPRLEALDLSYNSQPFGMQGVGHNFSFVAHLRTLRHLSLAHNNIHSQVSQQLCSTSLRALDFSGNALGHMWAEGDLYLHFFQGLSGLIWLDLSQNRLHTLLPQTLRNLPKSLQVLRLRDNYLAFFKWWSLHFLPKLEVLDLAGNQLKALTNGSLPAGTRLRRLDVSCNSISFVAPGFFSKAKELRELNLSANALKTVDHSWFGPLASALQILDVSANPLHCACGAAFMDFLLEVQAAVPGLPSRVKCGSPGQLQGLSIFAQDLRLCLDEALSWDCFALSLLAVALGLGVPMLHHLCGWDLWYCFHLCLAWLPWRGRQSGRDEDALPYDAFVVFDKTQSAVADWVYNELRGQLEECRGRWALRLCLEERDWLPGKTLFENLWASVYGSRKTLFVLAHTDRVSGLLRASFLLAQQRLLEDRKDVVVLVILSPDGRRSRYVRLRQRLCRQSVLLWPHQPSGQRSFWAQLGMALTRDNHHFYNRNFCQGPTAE
Description: TLR9 inhibition reporter assay (HEK-Blue cells, SEAP reporter). The experiment is classed as cell-based. To be noted: HEK-Blue cells overexpressing human TLR9; stimulated with ODN2006 5 nM; 22 hour incubation; SEAP readout. As to the method: TLR7/8/9 Inhibition Reporter Assays
HEK-Blue™-cells (Invivogen) overexpressing human TLR7, TLR8 or TLR9 receptors were used for screening inhibitors of these receptors using an inducible SEAP (secreted embryonic alkaline phosphatase) reporter gene under the control of the […] minimal promoter fused to five NF-κB and AP-1-binding sites. Briefly, cells are seeded into Greiner 384 well plates (15000 cells per well for TLR7, 20,000 for TLR8 and 25,000 for TLR9) and then treated with test compounds in DMSO to yield a final dose response concentration range of 0.05 nM-50 μM. After a 30 minute compound pre-treatment at room temperature, the cells are then stimulated with a TLR7 ligand (gardiquimod at a final concentration of 7.5 μM), TLR8 ligand (R848 at a final concentration of 15.9 μM) or TLR9 ligand (ODN2006 at a final concentration of 5 nM) to activate NF-κB and AP-1 which induce the production of SEAP. After a 22 hour incubation at 37° C., 5% CO2, SEAP levels are determined with the addition of HEK-Blue™ Detection reagent (Invivogen), a cell culture medium that allows for detection of SEAP, according to manufacturer's specifications. The percent inhibition is determined as the % reduction in the HEK-Blue signal present in wells treated with agonist plus DMSO alone compared to wells treated with a known inhibitor.

In turn, `Cc1cc(-c2ccc(N3CCN(C(C)C)CC3)cc2)cn2nc(-c3ccc(S(C)(=O)=O)cc3)nc12` [Example 147, 6-(4-(4-isopropylpiperazin-1-yl)phenyl)-8-methyl-2-(4-(methylsulfonyl)phenyl)-[1,2,4]triazolo[1,5-a]pyridine] yielded an IC50 of 909 nM.
In turn, `COc1ccc(-c2nc3c(C)cc(-c4ccc(N5CC6CCC(C5)N6C(C)C)cc4)cn3n2)cc1OC` [Example 151, 2-(3,4-dimethoxyphenyl)-6-(4-(8-isopropyl-3,8-diazabicyclo[3.2.1]octan-3-yl)phenyl)-8-methyl-[1,2,4]triazolo[1,5-a]pyridine] returned a half-maximal inhibitory concentration (IC50) of 1370 nM.
In turn, `Cc1cc(C2CCN(C3CC4CCC(C3)N4CC(C)C)CC2)cn2cc(-c3ccc(S(C)(=O)=O)cc3)nc12` (single isomer, unassigned) [Example 85, 6-(1-(8-isobutyl-8-azabicyclo[3.2.1]octan-3-yl)piperidin-4-yl)-8-methyl-2-(4-(methylsulfonyl)phenyl)imidazo[1,2-a]pyridine] displayed a concentration for half-maximal inhibition (IC50) of 27 nM.
Turning to `Cc1cc(C2CCN(C3CC4CCC(C3)N4C(C)C)CC2)cn2cc(-c3ccc(S(C)(=O)=O)cc3)nc12` (single isomer, unassigned) [Example 62, 6-(1-(8-isopropyl-8-azabicyclo[3.2.1]octan-3-yl)piperidin-4-yl)-8-methyl-2-(4-(methylsulfonyl)phenyl)imidazo[1,2-a]pyridine], it took 98 nM to reach half-maximal inhibition (IC50).
For `COc1ccc(-c2nc3c(C)cc(C4CCN(C5CCN(C6CC6)CC5)CC4)cn3n2)cc1OC` [Example 157, 6-(1′-cyclopropyl-[1,4′-bipiperidin]-4-yl)-2-(3,4-dimethoxyphenyl)-8-methyl-[1,2,4]triazolo[1,5-a]pyridine] the value was 232 nM.
Regarding `COc1ccc(-c2nc3n(n2)CC(C2CCC(N4CCN(C(C)C)CC4)CC2)CC3C)cc1OC` (stereo not shown) [Example 143, 2-(3,4-dimethoxyphenyl)-6-(4-(4-isopropylpiperazin-1-yl)cyclohexyl)-8-methyl-5,6,7,8-tetrahydro-[1,2,4]triazolo[1,5-a]pyridine], the 50% inhibitory concentration (IC50) amounted to 7330 nM.
`Cc1cc(C2CC3CCC(C2)N3C2CCN(C3CC3)CC2)cn2nc(-c3ccc(S(C)(=O)=O)cc3)nc12` (stereo not shown) [Example 159, 6-(8-(1-cyclopropylpiperidin-4-yl)-8-azabicyclo[3.2.1]octan-3-yl)-8-methyl-2-(4-(methylsulfonyl)phenyl)-[1,2,4]triazolo[1,5-a]pyridine] displayed an IC50 of 594 nM.
The molecule `CS(=O)(=O)c1ccc(-c2cn3cc(C4CCN(C5CCN(C6CC6)CC5)CC4)c(F)cc3n2)cc1` [Example 124, 6-(1′-cyclopropyl-[1,4′-bipiperidin]-4-yl)-7-fluoro-2-(4-(methylsulfonyl)phenyl) imidazo[1,2-a]pyridine] yielded an IC50 of 158 nM.
With `Cc1cc(C2CCN(C3CCN(CC4CCC4)CC3)CC2)cn2cc(-c3ccc(S(C)(=O)=O)cc3)nc12` [Example 93, 6-(1′-(cyclobutylmethyl)-[1,4′-bipiperidin]-4-yl)-8-methyl-2-(4-(methylsulfonyl)phenyl)imidazo[1,2-a]pyridine] the figure was 83 nM.
In turn, `COc1ccc(-c2nc3ccc(-c4ccc(N5CC6CCC(C5)N6C(C)C)cc4)cn3n2)cc1OC` [Example 166] registered an IC50 of 628 nM.
On to `COc1ccc(-c2nc3ccc(C4CCN(C5CCN(C(C)C)CC5)CC4)cn3n2)cc1OC` [Example 165, 2-(3,4-dimethoxyphenyl)-6-(1′-isopropyl-[1,4′-bipiperidin]-4-yl)-[1,2,4]triazolo[1,5-a]pyridine], for which the 50% inhibitory concentration (IC50) is 113 nM.
On to `COCCN1CCN(c2ccc(-c3cc(C)c4nc(-c5ccc(S(C)(=O)=O)cc5)cn4c3)cc2)CC1` [Example 105, 6-(4-(4-(2-methoxyethyl)piperazin-1-yl)phenyl)-8-methyl-2-(4-(methylsulfonyl)phenyl) imidazo[1,2-a]pyridine], for which half-maximal inhibition (IC50) was put at 1000 nM.
In turn, `COc1ccc(-c2nc3c(C)cc(C4CC5CCC(C4)N5C4CCN(C5CC5)CC4)cn3n2)cc1OC` (stereo not shown) [Example 155, 6-(8-(1-cyclopropylpiperidin-4-yl)-8-azabicyclo[3.2.1]octan-3-yl)-2-(3,4-dimethoxyphenyl)-8-methyl-[1,2,4]triazolo[1,5-a]pyridine] came in with a concentration for half-maximal inhibition (IC50) of 214 nM.
In turn, `Cc1cc(-c2ccc(N3CC4CCC(C3)N4C(C)C)cc2)cn2nc(-c3ccc(S(C)(=O)=O)cc3)nc12` [Example 153, 6-(4-(8-isopropyl-3,8-diazabicyclo[3.2.1]octan-3-yl)phenyl)-8-methyl-2-(4-(methylsulfonyl)phenyl)-[1,2,4]triazolo[1,5-a]pyridine] had an IC50 of 659 nM.
`COc1ccc(-c2nc3n(n2)CC(C2CC4CCC(C2)N4C2CCN(C(C)C)CC2)CC3)cc1OC` (stereo not shown) [Example 148, 2-(3,4-dimethoxyphenyl)-6-(8-(1-isopropylpiperidin-4-yl)-8-azabicyclo[3.2.1]octan-3-yl)-5,6,7,8-tetrahydro-[1,2,4]triazolo[1,5-a]pyridine] displayed a half-maximal inhibitory concentration (IC50) of 303 nM.
Consider `Cc1cc(C2CCN(C3CC4CCC(C3)N4C3CCC3)CC2)cn2cc(-c3ccc(S(C)(=O)=O)cc3)nc12` (single isomer, unassigned) [Example 84, 6-(1-(8-cyclobutyl-8-azabicyclo[3.2.1]octan-3-yl)piperidin-4-yl)-8-methyl-2-(4-(methylsulfonyl)phenyl)imidazo[1,2-a]pyridine], for which it took 21 nM to reach half-maximal inhibition (IC50).
`CC(C)N1CCN(c2ccc(-c3ccc4nc(-c5ccc(S(C)(=O)=O)cc5)nn4c3)cc2)CC1` [Example 167, 6-(4-(4-isopropylpiperazin-1-yl)phenyl)-2-(4-(methylsulfonyl)phenyl)-[1,2,4]triazolo[1,5-a]pyridine] yielded a half-maximal inhibitory concentration (IC50) of 1630 nM.
In turn, `Cc1cc(C2CCN(C3CC4CCC(C3)N4CC3CCC3)CC2)cn2cc(-c3ccc(S(C)(=O)=O)cc3)nc12` (single isomer, unassigned) [Example 90, 6-(1-(8-(cyclobutylmethyl)-8-azabicyclo[3.2.1]octan-3-yl)piperidin-4-yl)-8-methyl-2-(4-(methylsulfonyl)phenyl)imidazo[1,2-a]pyridine] came in with a concentration for half-maximal inhibition (IC50) of 104 nM.
`Cc1cc(C2CCN(C3CC4CCC(C3)N4CC3CC3)CC2)cn2cc(-c3ccc(S(C)(=O)=O)cc3)nc12` (single isomer, unassigned) [Example 88, 6-(1-(8-(cyclopropylmethyl)-8-azabicyclo[3.2.1]octan-3-yl)piperidin-4-yl)-8-methyl-2-(4-(methylsulfonyl)phenyl) imidazo[1,2-a]pyridine] gave an IC50 of 120 nM.
With `COc1ccc(-c2nc3c(C)cc(C4CC5CCC(C4)N5C4CCN(C(C)C)CC4)cn3n2)cc1OC` (stereo not shown) [Example 156, 2-(3,4-dimethoxyphenyl)-6-(8-(1-isopropylpiperidin-4-yl)-8-azabicyclo[3.2.1]octan-3-yl)-8-methyl-[1,2,4]triazolo[1,5-a]pyridine] the figure was 234 nM; with `COc1ccc(-c2nc3ccc(C4CC5CCC(C4)N5C4CCN(C(C)C)CC4)cn3n2)cc1OC` (stereo not shown) [Example 149, 2-(3,4-dimethoxyphenyl)-6-(8-(1-isopropylpiperidin-4-yl)-8-azabicyclo[3.2.1]octan-3-yl)-[1,2,4]triazolo[1,5-a]pyridine], 217 nM; with `Cc1cc(C2CCN(C3CC4CCC(C3)N4CC(C)C)CC2)cn2cc(-c3ccc(S(C)(=O)=O)cc3)nc12` (single isomer, unassigned) [Example 86, 6-(1-(8-isobutyl-8-azabicyclo[3.2.1]octan-3-yl)piperidin-4-yl)-8-methyl-2-(4-(methylsulfonyl)phenyl)imidazo[1,2-a]pyridine], 102 nM.
